Each structure is given as a SMILES string. “Also recorded” adds a separate entry of the source.

The subject of series [1] is intact AMI dog model of LAD occlusion. In words: Intact AMI dog model of LAD occlusion for 1 hour followed by reperfusion for 2 hours. It counts as in vivo. Conditions: for myocardial cell injury (histology): vs control (saline) group. As to the method: During ischemia, myocardial ATP levels decrease by 65% at 15 minutes and by 90% at 40 minutes, thus contractile performance in vivo decreases precipitously and ceases when only 20% of ATP and 75% of creatine phosphate are depleted. […] ATP synthesis continued during ischemia and its depletion was delayed resulting in over 85% preservation of pre-ischemic ATP level with a loss of only 15%, and 97% preservation of the CrP (loss of 3%) during ischemia. This significant preservation is crucial since ATP depletion of more than 20% ceases contractility. Control saline-treated hearts maintained only 66% of the ATP, with a loss of 34%, resulting in loss of reperfusion cardiac contractility. […] On the other hand, contractile function of control saline dogs was ceased completely after LAD occlusion and never recovered during reperfusion.

Series [2] in a line: Crossing of the blood-brain barrier.
The test system of another series is Yorkshire pigs. Briefly: Aortic cross-clamping for 30 minutes in Yorkshire pigs (paraplegia). It is filed as in vivo, pig. Conditions: 30 minutes aortic cross-clamping, 4 days survival. The source says:
The relationship between hypoxia and AD could open the avenue for effective preservation and pharmacological treatments of this neurodegenerative disease by using new therapeutic drugs like the novel bioenergetic drug, CCrP. CCrP provides protection of heart muscle against ischemic injury in CAD, UA, AMI, HF and cardiac surgical patients and thus save ischemic muscles from progressing to necrosis and heart failure, and will be protective against ischemic injury in stroke and AD. […] Since paraplegia following surgery of the descending thoracic aorta is a serious complication in adult and pediatric surgery, we tested the neuroprotective effect of Cyclocreatine in Yorkshire pigs which underwent 30 minutes of aortic cross-clamping then left to survive for 4 days. […] As indicated in Example 17, similar to heart tissue (Nourin-1), Nourin protein was quickly released within 5 minutes by brain (Nourin-2) and spinal cord (Nourin-3) in response to ischemia. Because of the great similarities between heart and brain and that they are both require high demand of ATP, CCrP will be as effective in preventing ischemic injury and restoring neurologic function in stroke and AD, similar to HF.

Series [3] deals with intact canine model of cold cardioplegic arrest. In words: Intact canine model of cold cardioplegic arrest and aortic cross-clamping (bypass). It is filed as in vivo, dog. As to the method: Dogs were injected intravenously with saline or CCr (500 mg/kg) for 1 hour before initiating the experiment.
Atrial fibrillation (AF) induces cardiac structural remodeling and there is a need to develop more mechanism-directed AF therapies that use the mitochondria as a novel potential therapeutic target in AF.

For series [4], the system named is non-heartbeating dog model of heart transplantation. In words: Non-heartbeating dog model of heart transplantation (warm ischemic arrest, ex vivo perfusion). It counts as in vivo. As to the method: Dog hearts underwent 1 hour of global warm ischemic arrest then hearts were explanted and perfused ex vivo for an additional 4 hours with a cold lactated ringers solution containing Cyclocreatine, while control hearts received cold lactated ringers solution alone. […] Similarly, the myocardium of the CCr dog maintained a tissue pH of 7.04±0.1 during the warm ischemia period of 1 hour and throughout the ex vivo perfusion interval, which was close to its baseline level of 7.11. On the other hand, tissue pH in control hearts fell to a nadir of 6.00±0.25 during the induction of warm ischemia and never returned back to baseline levels during the ex vivo preservation period.

For `NC1=NCCN1CC(=O)O` [Cyclocreatine], the “preservation of pre-ischemic ATP level” value in series [1] (CCr 60 minutes before LAD occlusion for 1 hour, saline 66%) was “over 85%”. The “loss of ATP” value in series [1] (CCr 60 minutes before LAD occlusion, saline 34%) is given as 15%. Further, the “neutrophil accumulation into the myocardium” value in series [1] (at the end of 2 hours reperfusion) is listed as “reduces neutrophil accumulation”. In addition, in series [1] (during ischemia), the “loss of CrP” value is on record as 3% and the “preservation of the CrP” value is given as 97%. For the same compound, the “circulating Nourin protein in plasma” value in series [1] (during the 2 hour reperfusion) is on record as “inhibiting the levels of circulating Nourin protein”. The contractile function restored entry in series [1] (immediately at reperfusion and for an additional 2 hours) was “over 80%”. The “myocardial cell injury (histology)” value in series [1] is recorded as “significantly reduced myocardial cell injury”. In addition, in series [1] (listed as CCr), the “myocardial cell injury (histology)” value was “markedly less myocardial cell injury”. Besides, the “crossing of the blood-brain barrier” value in series [2] is “crosses the blood-brain barrier; also recorded: crosses the blood brain barrier”. Moreover, the “ability to stand and walk” value in the series on Yorkshire pigs was “Majority of Cyclocreatine-treated animals were able to stand and walk”. Further, the “post-bypass cardiac output, of the baseline function” value in series [3] (CCr 500 mg/kg IV, throughout 4 hours of reperfusion, control 60%) is on record as “over 90%”. Also, the “resumption of contractility during reperfusion” value in series [3] (all control dogs required defibrillation, listed as CCr) was “without arrhythmias; also recorded: without the need for defibrillation”. In series [4] (1 hour warm ischemia and ex vivo perfusion, baseline 7.11, control nadir 6.00±0.25), the “myocardial tissue pH” value is recorded as 7.04±0.1. For the same compound, the “time to stop beating and develop asystole” value in series [4] (after exsanguination, control average 2 minutes) stood at 9 min. In series [4] (compared to control), the “intracellular edema (diffusion weighted MRI)” value is recorded as “Reduced intracellular edema” and the “myocardial tissue lactic acidosis (spectroscopic MRI)” value is “Reduced myocardial tissue lactic acidosis”. Further, in series [4] (compared to controls), the “cell injury marker Malondialdehyde” value is reported as “Reduced level” and the “myocardial ATP content” value was “Three-fold increase”. Besides, in series [4] (control dogs 3.86-fold increase over baseline), the “reduction of Caspase enzyme activities, of baseline” value was found to be 25%.

Source of the values: patent US11761966B2, “Nourin gene-based RNA molecular network: novel early diagnostic and prognostic biomarkers for coronary artery disease, unstable angina, STEMI/NSTEMI and heart failure” (Nour Heart, Inc., priority 2018, dated 2023).
